Tested on: polymerized actin in lysate of NIH 3T3 EF cells
Experiment: Measurement of polymerized actin in the steady state (STAFI) and Kobs in cellular lysate by static fluorescence polarization
Assay type: biochemical, murine
Details: NIH 3T3 EF lysate
Source text: The result of the test is a plateau fluorescence anisotropy value (<<STAFI>>) corresponding to the quantity of polymerized actin in the steady state and an apparent constant (Kobs) for actin polymerization resulting from the progressive incorporation of marked actin monomers over time until attainment of the steady state, that is the plateau of the curve.
By use of the GraphPad Prism® version 3 Software (GraphPad Software, Inc., San Diego, Calif.), for biostatistics, curve fitting, and scientific graphing, the experimental data are used to generate a curve adjusted to a 1st order equation such that: Y=ΔmA max(1−e^−k·t) where
The technique of fluorescence polarization, also called static fluorescence anisotropy enables the obtaining of a value dependent on the size of the fluorescent molecule and the number of fluorescent molecular complexes. […] The level of this plateau, called <<STAFI>> reflects the quantity of F at the steady state, that is, the […], and the speed of reaching the plateau depends on the rapidity with which these filaments are formed. […]
At the time of the test, the solution of marked actin monomers is diluted to 1/3 in G solution. The apparatus used is a Beacon® 2000 Fluorescence Polarization System (Invitrogen Corporation, Carlsbad, Calif.) fluorescence polarization spectrometer. […]

SMILES: C/C1=C\[C@H](C)C[C@H](C)OC(=O)C[C@H](c2ccc(O)cc2)NC(=O)[C@@H](Cc2c(Br)[nH]c3ccccc23)N(C)C(=O)[C@H](C)NC(=O)[C@@H](C)C1 [Jasplakinolide]
- delta mA max (STAFI, fluorescence anisotropy value at the plateau) (10 μM jasplakinolide added to polymerization medium, initial value 35 mA, NIH 3T3 65 mA): 66 mA
- Kobs (apparent constant of actin polymerization) (jasplakinolide added, NIH 3T3 EF alone 0.04, NIH 3T3 0.086): 0.15

Source: US7491505B2, “Method for analyzing tumor aggressivity comprising measurement of polymerized actin” (Bioalliance Pharma, priority 2002, dated 2009)
